Article PMC6112376, “Comprehensive Analyses and Prioritization of Tox21 10K Chemicals Affecting Mitochondrial Function by in-Depth Mechanistic Studies” (Environmental Health Perspectives, 2018)
Where two headings read alike, the source gives them in different places.

Key:
[1] = tested on: rat primary hepatocytes; assay: MMP assay in rat primary hepatocytes; details: for IC50: Rattus norvegicus, Hepatocyte
[2] = tested on: HepG2 cells; assay: cells; details: Homo sapiens; for Emax: HepG2, read-out: MMP assays efficacy (%) HepG2
[3] = tested on: HepG2 cells; details: cited from earlier work
[4] = tested on: rat primary hepatocytes
[5] = tested on: HepG2 cells; details: HepG2 cells; single number from one experiment
[6] = read-out: MMP assays IC50 (µM) Rat Hepatocytes
[7] = HepG2, read-out: MMP assays IC50 (µM) HepG2
[8] = read-out: MMP assays IC50 (µM) qHTS-HepG2
[9] = read-out: MMP assays IC50 (µM), qHTS-HepG2
[10] = rat hepatocytes, mean ± SD of three experiments

Compound	IC50 [1, 6] [µM]	IC50 [2, 7] [µM]	Emax [2] [%]	MMP assays efficacy (%) qHTS-HepG2 [3] [%]	IC50 [3, 8] [µM]	MMP assays efficacy (%) Rat Hepatocytes [4]	IC50 [3, 9] [µM]	MMP assays IC50 (µM) Rat Hepatocytes [1]	IC50 ([1]; 1 h, read-out: IC50 in rat primary hepatocytes (MMP, tier-one retest)) [µM]	IC50 ([2]; HepG2, read-out: IC50 in HepG2 cells (MMP, tier-one retest)) [µM]	MMP assays IC50 (µM) Rat Hepatocytes [1, 10]	MMP assays efficacy (%) Rat Hepatocytes [1, 10]	MMP assays IC50 (µM) HepG2 [5]	MMP assays efficacy (%) HepG2 [5]
O=c1oc2ccccc2c(O)c1C1CCCc2ccccc21 (centres unmarked) [Coumatetralyl]	13.8 ± 8.1	35.5	124	-144±2	13.7 ± 4.84	-110±37%	–	–	–	–	–	–	–	–
CCCN(CC1CC1)c1c([N+](=O)[O-])cc(C(F)(F)F)cc1[N+](=O)[O-] [Profluralin]	25.1 ± 35.4	39.8	58	-76±20	–	-37±10%	21.7 ± 8.04	–	–	–	–	–	–	–
CCOc1nc2cccc(C(=O)OC(C)OC(=O)OC3CCCCC3)c2n1Cc1ccc(-c2ccccc2-c2nnn[nH]2)cc1 (centres unmarked) [Candesartan cilexetil]	–	11.2	101	-124±13	15.9 ± 4.62	inactive	–	inactive	–	–	–	–	–	–
CC(C)(C)c1cc([N+](=O)[O-])cc(C(C)(C)C)c1O [2,6-di-tert-butyl-4-nitrophenol]	–	–	108	-96±13	0.17 ± 0.05	-109±11%	–	–	0.29	0.11	–	–	–	–
IC(I)=C(I)I [Tetraiodoethene]	22.6 ± 14.4	6.31	103	-105±22	–	-115±28%	5.45 ± 1.27	–	–	–	–	–	–	–
Cc1ccc2cc3c(ccc4ccccc43)c3c2c1CC3 [Compound 3-Methylcholanthrene]	–	25.2	66	-74±19	17.3 ± 13.2	inactive	–	inactive	–	–	–	–	–	–
CCC(C)c1ccccc1O (centres unmarked) [2-(Butan-2-yl)phenol]	–	25.1	32	-82±8	49.5 ± 9.45	inactive	–	inactive	–	–	–	–	–	–
CC(C)C[C@H]1C(=O)N2CCC[C@H]2[C@]2(O)O[C@](NC(=O)[C@@H]3C=C4c5cccc6[nH]c(Br)c(c56)C[C@H]4N(C)C3)(C(C)C)C(=O)N12 [Bromocriptine]	13.2 ± 10.8	21.8	121	-112±8	11.4 ± 1.58	-68±7%	–	–	–	–	–	–	–	–
CCCOC(=O)c1ccc(O)cc1 [Propylparaben]	–	35.5	91	-99±4	–	inactive	38.6 ± 1.67	inactive	–	–	–	–	–	–
Oc1ccc(Cl)cc1Sc1cc(Cl)ccc1O [Fenticlor]	13.9 ± 8.84	5.48	101	-107±14	–	-88±15%	2.15 ± 0.36	–	–	–	–	–	–	–
O=C(Nc1ccccc1)c1ccccc1O [Salicylanilide]	29.1 ± 12.2	3.98	101	-125±11	–	-91±5%	3.71 ± 1.27	–	–	–	–	–	–	–
O=C1c2ccccc2C(=O)c2c1ccc(O)c2O [Alizarin]	11.9 ± 7.79	13.8	94	-101±8	11 ± 1.41	-80±8%	–	–	–	–	–	–	–	–
CC(C)[C@@H](Nc1ccc(C(F)(F)F)cc1Cl)C(=O)OC(C#N)c1cccc(Oc2ccccc2)c1 (some centres unmarked) [tau-Fluvalinate]	–	31.6	58	–	–	inactive	37.2 ± 15.1	inactive	–	–	–	–	–	–
NS(=O)(=O)C(F)(F)C(F)(F)C(F)(F)C(F)(F)C(F)(F)C(F)(F)C(F)(F)C(F)(F)F [Perfluorooctanesulfonamide]	1.47 ± 0.1	2.51	101	-94±15	–	-118±45%	2.43 ± 0.81	–	–	–	–	–	–	–
O=C=Nc1ccc(Cl)cc1 [4-Chlorophenyl isocyanate]	1.56 ± 0.39	0.71	99	-110±18	0.27 ± 0.11	-98±7%	–	–	–	–	–	–	–	–
C[C@H]1O[C@@H](O[C@H]2[C@@H](O)C[C@H](O[C@H]3[C@@H](O)C[C@H](O[C@H]4CC[C@@]5(C)[C@H](CC[C@@H]6[C@@H]5C[C@@H](O)[C@]5(C)[C@@H](C7=CC(=O)OC7)CC[C@]65O)C4)O[C@@H]3C)O[C@@H]2C)C[C@H](O)[C@@H]1O [Digoxin]	–	0.13	105	-71±8	0.52 ± 0.09	inactive	–	inactive	–	–	–	–	–	–
Oc1c(Cl)c(Cl)c(Cl)c(Cl)c1Cl [Pentachlorophenol]	4.17 ± 0.75	8.9	99	-97±20	–	-119±31%	3.09 ± 0.6	–	–	–	–	–	–	–
Clc1ccc(C(c2ccccc2Cl)C(Cl)(Cl)Cl)cc1 (centres unmarked) [o,p'-DDT]	–	25.1	101	-86±11	–	inactive	24 ± 12.1	inactive	–	–	–	–	–	–
ClC1=C(Cl)C2(Cl)C(CBr)CC1(Cl)C2(Cl)Cl (centres unmarked) [Bromociclen]	–	15.5	47	-87±13	33.2 ± 3.47	inactive	–	inactive	–	–	–	–	–	–
COC(=O)Nc1nc2ccc(C(=O)c3ccccc3)cc2[nH]1 [Mebendazole]	–	2.34	89	-70±10	–	inactive	2.45 ± 0.34	–	–	–	–	–	–	–
CC1(C(=O)Nc2ccc(O)c(Cl)c2Cl)CCCCC1 [Fenhexamid]	36.7 ± 21.2	17.8	98	-88±22	8.31 ± 1.15	-62±26%	–	–	–	–	–	–	–	–
COP(=S)(OC)Oc1cc(Cl)c(Br)cc1Cl [Bromofos]	22.7 ± 10.4	8.91	95	-105±8	7.7 ± 1.63	-111±7%	–	–	–	–	–	–	–	–
TYROTHRICIN	–	–	–	–	–	-89±25%	–	–	–	–	–	–	–	–
O=C(CCCN1CCC2(CC1)C(=O)NCN2c1ccccc1)c1ccc(F)cc1 [Spiperone]	–	–	54	-65±12	–	-74±48%	–	–	–	–	–	–	–	–
COC(=O)C1=C(C)NC(C)=C(C(=O)OCC(C)=O)C1c1ccccc1[N+](=O)[O-] (centres unmarked) [Aranidipine]	–	–	–	-56±6	12.8 ± 3.68	–	–	–	–	–	inactive	inactive	inactive	inactive
O=C1c2ccccc2Cc2ccccc21 [Anthrone]	42.4 ± 12	–	–	-70±4	21.8 ± 9.9	–	–	–	–	–	–	-68±22%	inactive	inactive
